{
  "source": "paper PMC6934184",
  "about": "“Selective DNA-PKcs inhibition extends the therapeutic index of localized radiotherapy and chemotherapy” (The Journal of Clinical Investigation, 2019)",
  "biological_target": "T1, KIT V559D T670I (Homo sapiens, UniProt P10721, T670I/V559D)",
  "T1 construct": "purchased Thermo Fisher Scientific (Life Technologies) SelectScreen",
  "T1 sequence (P10721 26-976 V559D/T670I)": "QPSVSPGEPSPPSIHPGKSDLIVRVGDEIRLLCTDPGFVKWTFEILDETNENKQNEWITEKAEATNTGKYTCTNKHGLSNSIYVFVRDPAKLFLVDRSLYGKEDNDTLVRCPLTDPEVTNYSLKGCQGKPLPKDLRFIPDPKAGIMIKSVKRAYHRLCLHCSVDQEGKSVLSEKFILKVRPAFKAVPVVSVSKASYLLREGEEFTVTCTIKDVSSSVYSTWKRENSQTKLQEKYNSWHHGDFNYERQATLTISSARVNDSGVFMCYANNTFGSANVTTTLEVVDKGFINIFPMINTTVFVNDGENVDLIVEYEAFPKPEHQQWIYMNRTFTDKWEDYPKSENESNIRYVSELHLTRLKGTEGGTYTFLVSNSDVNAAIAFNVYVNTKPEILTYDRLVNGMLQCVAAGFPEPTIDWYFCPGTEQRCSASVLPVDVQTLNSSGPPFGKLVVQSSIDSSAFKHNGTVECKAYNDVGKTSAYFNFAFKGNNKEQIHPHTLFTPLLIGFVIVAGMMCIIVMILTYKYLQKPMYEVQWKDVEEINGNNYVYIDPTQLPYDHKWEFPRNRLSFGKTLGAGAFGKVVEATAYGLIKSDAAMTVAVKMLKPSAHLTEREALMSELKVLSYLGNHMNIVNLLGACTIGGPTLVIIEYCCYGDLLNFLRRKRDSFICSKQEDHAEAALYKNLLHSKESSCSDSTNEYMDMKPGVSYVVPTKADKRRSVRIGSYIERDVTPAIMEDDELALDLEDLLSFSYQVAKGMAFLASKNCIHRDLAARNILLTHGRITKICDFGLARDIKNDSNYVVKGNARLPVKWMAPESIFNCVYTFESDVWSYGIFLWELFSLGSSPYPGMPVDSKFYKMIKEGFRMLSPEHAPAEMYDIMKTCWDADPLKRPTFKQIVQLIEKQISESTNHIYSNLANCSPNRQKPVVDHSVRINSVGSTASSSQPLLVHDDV",
  "test": "SelectScreen LanthaScreen",
  "assay_type": "binding",
  "conditions": "read-out: % displacement",
  "in_short": "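NU5455 was profiled across the SelectScreen Broad panel of kinase activity and binding assays. Z'LYTE reactions such as CSF1R ran at apparent Km ATP, while the Adapta CAMK1 assay used ATP listed as 10. Values are given as percent.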",
  "data": [
    {"smiles": "CN(C(=O)CN1CCOCC1)c1ccc2sc3c(-c4cccc5c(=O)cc(N6CC7CCC(C6)O7)oc45)cccc3c2c1", "note": "[NU5455]", "values": [
      {"measurement": "inhibition at 1 µM", "result": 3.1, "unit": "%"}
    ]}
  ]
}
